Laboratory results from PMC10693969 (Parasites, Hosts and Diseases, 2023).
Like-named read-outs stand apart in the source and are kept apart here.

What was measured:
[1] = Cytotoxicity against C6 glial cells; format: cell-based, rat; settings: rat, C6 glial cells
[2] = tested on: A. castellanii (ATCC-30868) trophozoites; experiment: In vitro anti-Acanthamoeba activity, A. castellanii trophozoite viability; format: cell-based; settings: for IC50: mean±SD of 3 independent experiments; for SI, sensitivity index (CC50 C6 glial cells / IC50 A. castellanii): ratio CC50 C6 glial cells / IC50 A. castellanii; for antiamoebic activity against A. castellanii (in words): in vitro
[3] = tested on: Naegleria fowleri trophozoites (Carter NF69 strain, ATCC 30215); experiment: In vitro anti-N. fowleri activity, trophozoite viability; format: cell-based; settings: for IC50: mean±SD of 3 independent experiments; for SI, sensitivity index (CC50 C6 glial cells / IC50 N. fowleri): ratio CC50 C6 glial cells / IC50 N. fowleri; for antiamoebic activity against N. fowleri (in words): in vitro
[4] = tested on: A. polyphaga (ATCC-30461) trophozoites; experiment: In vitro anti-Acanthamoeba activity, A. polyphaga trophozoite viability; format: cell-based; settings: for IC50: mean±SD of 3 independent experiments; for SI, sensitivity index (CC50 C6 glial cells / IC50 A. polyphaga): ratio CC50 C6 glial cells / IC50 A. polyphaga; for antiamoebic activity against A. polyphaga (in words): in vitro
[5] = tested on: C6 rat glial cells (ATCC CCL-107); experiment: Cytotoxicity against C6 glial cells; format: cell-based; settings: read-out: C6 glial cells (CC50 ±SD); C6 rat glial cells, 0–400 μM; mean±SD of 3 independent assays
[6] = Acanthamoeba castellanii, ATCC30868, 48 h, read-out: A. castellanii (IC50 ±SD, μM), trophozoites, 0–400 μM, 25°C, 48 h
[7] = read-out: A. castellanii (IC50 ±SD), trophozoites, 0–400 μM, 25°C, 48 h
[8] = Naegleria fowleri, ATCC30215, 48 h, read-out: N. fowleri (IC50 ±SD, μM), trophozoites, 0–400 μM, 37°C, 48 h
[9] = Acanthamoeba polyphaga, ATCC30461, 48 h, read-out: A. polyphaga (IC50 ±SD, μM), trophozoites, 0–400 μM, 25°C, 48 h
[10] = read-out: A. polyphaga (IC50 ±SD), trophozoites, 0–400 μM, 25°C, 48 h
[11] = trophozoites, listed as berberine

Row | SMILES | CC50 [1] [µM] | IC50 [2, 6] [µM] | SI, sensitivity index (CC50 C6 glial cells / IC50 A. castellanii) [2] | IC50 [2, 7] [µM] | IC50 [3, 8] [µM] | SI, sensitivity index (CC50 C6 glial cells / IC50 N. fowleri) [3] | antiamoebic activity against N. fowleri (in words) ([3]; trophozoites) | IC50 [4, 9] [µM] | SI, sensitivity index (CC50 C6 glial cells / IC50 A. polyphaga) [4] | IC50 [4, 10] [µM] | antiamoebic activity against A. castellanii (in words) ([2]; trophozoites) | antiamoebic activity against A. polyphaga (in words) ([4]; trophozoites) | other results
1 | Oc1cc(O)c2c(c1)O[C@H](c1ccc(O)c(O)c1)[C@H](O)C2 [(−)-Epicatechin, (−)-epicatechin] | 318.6 ± 0.82 | < 50 | 9.55 | 33.4 ± 0.68 | 102.6 ± 0.97 | 3.11 | did not show significative anti-N. fowleri activities | < 50 | 12.73 | 25.02 ± 0.14 | – | – | SI, sensitivity index (CC50 C6 glial cells / IC50 A. castellanii) ([2]; listed as (−)-epicatechin): > 8; SI, sensitivity index (CC50 C6 glial cells / IC50 A. polyphaga) ([4]; listed as (−)-epicatechin): > 8
2 | Oc1cc(O)c2c(c1)O[C@H](c1cc(O)c(O)c(O)c1)[C@H](O)C2 [(−)-Epigallocatechin, (−)-epigallocatechin] | – | – | 8.68 | 32.1 ± 1.03 | – | 2.44 | did not show significative anti-N. fowleri activities | – | 11.55 | 24.16 ± 0.16 | – | – | CC50 [5]: 279 ± 0.3 µM; SI, sensitivity index (CC50 C6 glial cells / IC50 A. castellanii) ([2]; listed as (−)-epigallocatechin): > 8; IC50 ([2]; read-out: A. castellanii (IC50 ±SD), trophozoites, 0–400 μM, 25°C, 48 h, listed as (−)-epigallocatechin): < 50 µM; IC50 ([3]; read-out: N. fowleri (IC50 ±SD), trophozoites, 0–400 μM, 37°C, 48 h): 114.6 ± 0.48 µM; SI, sensitivity index (CC50 C6 glial cells / IC50 A. polyphaga) ([4]; listed as (−)-epigallocatechin): > 8; IC50 ([4]; read-out: A. polyphaga (IC50 ±SD), trophozoites, 0–400 μM, 25°C, 48 h, listed as (−)-epigallocatechin): < 50 µM
3 | C=C1CC/C=C(\C)CC[C@@H]2[C@@H]1CC2(C)C [(−)-trans-Caryophyllene, (−)-trans-caryophyllene] | 220 ± 2.42 | 65.1 ± 1.42 | 3.39 | – | 84.78 ± 0.65 | 2.60 | – | 44.8 ± 1.41 | 4.92 | – | – | – | –
4 | C[C@@H]1O[C@@H](Oc2c(-c3ccc(O)cc3)oc3cc(O)cc(O)c3c2=O)[C@H](O)[C@H](O)[C@H]1O [Afzelin, afzelin] | > 230 | > 230 | – | – | > 230 | – | – | > 230 | – | – | did not exhibit potential or selective antiamoebic activity | did not exhibit potential or selective antiamoebic activity | –
5 | CC[C@H]1OC(=O)[C@H](C)[C@@H](O[C@H]2C[C@@](C)(OC)[C@@H](O)[C@H](C)O2)[C@H](C)[C@@H](O[C@@H]2O[C@H](C)C[C@H](N(C)C)[C@H]2O)[C@](C)(O)C[C@@H](C)CN(C)[C@H](C)[C@@H](O)[C@]1(C)O [Azithromycin, Azithromycin dihydrate, reference compound] | 86.2 ± 0.93 | 12.1 ± 0.2 | 7.12 | – | 14.7 ± 1.65 | 5.88 | – | 4.12 ± 0.11 | 20.93 | – | – | – | –
6 | COc1ccc2cc3[n+](cc2c1OC)CCc1cc2c(cc1-3)OCO2 [Berberine, berberine] | 159.7 ± 1.23 | > 260 | – | – | > 260 | – | did not affect | > 260 | – | – | did not affect | did not affect | antiamoebic activity against A. castellanii (in words) [2, 11]: did not exhibit potential or selective antiamoebic activity; antiamoebic activity against A. polyphaga (in words) [4, 11]: did not exhibit potential or selective antiamoebic activity
7 | C=C1C(=O)O[C@@H]2/C=C(\C)CC/C=C(\C)CC[C@@H]12 [Costunolide, costunolide] | 191.2 ± 1.18 | < 50 | 5.97 | 32 ± 1.14 | 65.56 ± 0.58 | 2.92 | – | < 50 | 5.44 | 35.1 ± 0.74 | – | – | –
8 | O=c1c(-c2ccc(O)cc2)coc2cc(O)cc(O)c12 [Genistein, genistein] | 104 ± 1.08 | > 370 | – | – | 157.4 ± 0.57 | 0.66 | – | > 370 | – | – | did not exhibit potential or selective antiamoebic activity | did not exhibit potential or selective antiamoebic activity | –
